Remaining binding data for three molecules are collected here from article PMC6437697 (Journal of Medicinal Chemistry, 2019).

Holding throughout (assay): KINOMEscan
Holding throughout (assay type): binding
What all share (settings): read-out: % control activity remaining

The target of one assay is T1, PAK3 (Homo sapiens, UniProt O75914).
T1 construct: purchased Eurofins DiscoverX KINOMEscan

The next assay deals with T2, CSK (Homo sapiens, UniProt P41240).
T2 construct: purchased Eurofins DiscoverX KINOMEscan

Another assay addresses T3, MST1R (Homo sapiens, UniProt Q04912).
T3 construct: purchased Eurofins DiscoverX KINOMEscan

For assay [1], the target named is T4, EGFR(L747-S752del, P753S) (Homo sapiens, UniProt P00533, DEL747-752/P753S).
T4 construct: purchased Eurofins DiscoverX KINOMEscan

In the next assay the target is T5, RET(M918T) (Homo sapiens, UniProt P07949, M918T).
T5 construct: purchased Eurofins DiscoverX KINOMEscan

For a further assay, the target named is T6, PLK2 (Homo sapiens, UniProt Q9NYY3).
T6 construct: purchased Eurofins DiscoverX KINOMEscan

For a further assay, the target named is T7, LRRK2(G2019S) (Homo sapiens, UniProt Q5S007, G2019S).
T7 construct: purchased Eurofins DiscoverX KINOMEscan

The next assay addresses T8, FGFR1 (Homo sapiens, UniProt P11362).
T8 construct: purchased Eurofins DiscoverX KINOMEscan

Assay [2] concerns the target T9, JAK3(JH1domain-catalytic) (Homo sapiens, UniProt P52333).
T9 construct: JAK3(JH1domain-catalytic); purchased Eurofins DiscoverX KINOMEscan

The target of a further assay is T10, EGFR(G719C) (Homo sapiens, UniProt P00533, G719C).
T10 construct: purchased Eurofins DiscoverX KINOMEscan

The target of the next assay is T11, IKK-alpha (Homo sapiens, UniProt O15111).
T11 construct: purchased Eurofins DiscoverX KINOMEscan
T11 sequence (O15111 1-745): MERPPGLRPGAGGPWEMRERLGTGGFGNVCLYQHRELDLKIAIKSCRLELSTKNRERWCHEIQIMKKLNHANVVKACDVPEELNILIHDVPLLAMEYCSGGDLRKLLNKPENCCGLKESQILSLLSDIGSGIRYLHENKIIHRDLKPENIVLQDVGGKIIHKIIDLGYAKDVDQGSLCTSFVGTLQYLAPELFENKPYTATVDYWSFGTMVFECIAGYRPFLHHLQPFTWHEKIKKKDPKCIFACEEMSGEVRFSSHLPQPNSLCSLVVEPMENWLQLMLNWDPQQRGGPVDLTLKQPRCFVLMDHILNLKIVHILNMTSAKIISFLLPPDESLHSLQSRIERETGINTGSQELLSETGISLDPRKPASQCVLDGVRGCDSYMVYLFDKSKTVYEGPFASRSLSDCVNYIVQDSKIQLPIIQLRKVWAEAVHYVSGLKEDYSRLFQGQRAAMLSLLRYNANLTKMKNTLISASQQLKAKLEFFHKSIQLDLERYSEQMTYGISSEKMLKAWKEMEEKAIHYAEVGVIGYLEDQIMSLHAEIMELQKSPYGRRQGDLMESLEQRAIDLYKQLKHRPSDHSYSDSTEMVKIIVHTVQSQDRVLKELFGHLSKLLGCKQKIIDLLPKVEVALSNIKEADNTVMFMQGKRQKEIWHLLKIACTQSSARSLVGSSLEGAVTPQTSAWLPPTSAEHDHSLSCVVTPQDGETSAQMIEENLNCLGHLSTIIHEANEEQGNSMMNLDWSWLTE

A further assay deals with T12, FLT3-autoinhibited (Homo sapiens, UniProt P36888).
T12 construct: purchased Eurofins DiscoverX KINOMEscan
T12 sequence (P36888 564-993 limits assumed): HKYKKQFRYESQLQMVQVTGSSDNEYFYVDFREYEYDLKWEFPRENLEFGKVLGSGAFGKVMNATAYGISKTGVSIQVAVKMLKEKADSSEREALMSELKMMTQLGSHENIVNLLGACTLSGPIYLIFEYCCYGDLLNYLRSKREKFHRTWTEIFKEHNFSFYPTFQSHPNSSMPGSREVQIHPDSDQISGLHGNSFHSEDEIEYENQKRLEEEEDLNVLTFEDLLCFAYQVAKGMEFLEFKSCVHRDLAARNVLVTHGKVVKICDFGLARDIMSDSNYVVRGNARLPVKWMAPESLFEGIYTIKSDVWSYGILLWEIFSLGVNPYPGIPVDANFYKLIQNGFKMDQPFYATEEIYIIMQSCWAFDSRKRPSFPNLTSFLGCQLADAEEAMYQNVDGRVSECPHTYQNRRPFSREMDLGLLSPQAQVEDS

Another assay addresses T13, ERBB4 (Homo sapiens, UniProt Q15303).
T13 construct: purchased Eurofins DiscoverX KINOMEscan

The target of another assay is T14, FER (Homo sapiens, UniProt P16591).
T14 construct: purchased Eurofins DiscoverX KINOMEscan

The target in a further assay is T15, PIP5K1A (Homo sapiens, UniProt Q99755).
T15 construct: purchased Eurofins DiscoverX KINOMEscan

A further assay addresses T16, p38-alpha (Homo sapiens, UniProt Q16539).
T16 construct: purchased Eurofins DiscoverX KINOMEscan

A further assay concerns the target T17, PRKCE (Homo sapiens, UniProt Q02156).
T17 construct: purchased Eurofins DiscoverX KINOMEscan
T17 sequence (Q02156 1-737): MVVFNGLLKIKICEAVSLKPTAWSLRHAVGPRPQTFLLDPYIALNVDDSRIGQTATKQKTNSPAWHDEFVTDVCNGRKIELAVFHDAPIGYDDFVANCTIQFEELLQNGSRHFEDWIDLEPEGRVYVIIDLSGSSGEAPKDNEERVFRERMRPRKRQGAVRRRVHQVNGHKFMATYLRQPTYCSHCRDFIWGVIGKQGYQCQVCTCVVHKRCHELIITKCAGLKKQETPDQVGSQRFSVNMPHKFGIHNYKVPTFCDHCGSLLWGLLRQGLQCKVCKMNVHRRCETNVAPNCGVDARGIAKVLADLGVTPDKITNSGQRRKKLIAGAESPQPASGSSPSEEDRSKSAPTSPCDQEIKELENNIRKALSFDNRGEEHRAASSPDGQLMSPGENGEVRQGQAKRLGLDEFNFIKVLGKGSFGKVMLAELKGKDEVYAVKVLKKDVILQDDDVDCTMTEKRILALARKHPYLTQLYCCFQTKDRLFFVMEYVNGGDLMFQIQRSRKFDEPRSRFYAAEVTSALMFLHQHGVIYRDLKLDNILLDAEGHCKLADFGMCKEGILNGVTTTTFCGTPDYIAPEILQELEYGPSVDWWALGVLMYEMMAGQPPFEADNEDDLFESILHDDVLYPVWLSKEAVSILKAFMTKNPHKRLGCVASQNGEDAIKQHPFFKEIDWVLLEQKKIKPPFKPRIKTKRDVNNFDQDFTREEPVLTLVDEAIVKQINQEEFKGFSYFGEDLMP

T16 sequence (Q16539 whole entry): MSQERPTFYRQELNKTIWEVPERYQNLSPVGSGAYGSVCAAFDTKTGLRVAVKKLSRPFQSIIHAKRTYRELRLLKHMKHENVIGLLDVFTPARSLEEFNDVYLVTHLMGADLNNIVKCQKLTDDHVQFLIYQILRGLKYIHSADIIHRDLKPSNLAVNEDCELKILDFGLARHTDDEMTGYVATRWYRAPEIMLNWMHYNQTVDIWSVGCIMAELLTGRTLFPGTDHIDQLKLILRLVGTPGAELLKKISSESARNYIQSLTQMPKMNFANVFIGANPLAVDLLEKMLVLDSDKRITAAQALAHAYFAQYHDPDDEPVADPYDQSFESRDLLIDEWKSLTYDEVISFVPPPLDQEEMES
T9 sequence (P52333 822-1124 limits assumed): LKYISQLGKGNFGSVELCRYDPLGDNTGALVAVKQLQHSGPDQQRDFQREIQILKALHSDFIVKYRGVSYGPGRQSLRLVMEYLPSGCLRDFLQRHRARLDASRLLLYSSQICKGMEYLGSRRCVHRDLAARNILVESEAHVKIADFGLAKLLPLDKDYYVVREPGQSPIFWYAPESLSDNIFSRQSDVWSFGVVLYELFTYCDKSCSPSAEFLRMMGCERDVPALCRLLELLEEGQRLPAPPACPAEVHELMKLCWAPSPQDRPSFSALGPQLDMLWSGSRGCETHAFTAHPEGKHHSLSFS
T3 sequence (Q04912 25-1400): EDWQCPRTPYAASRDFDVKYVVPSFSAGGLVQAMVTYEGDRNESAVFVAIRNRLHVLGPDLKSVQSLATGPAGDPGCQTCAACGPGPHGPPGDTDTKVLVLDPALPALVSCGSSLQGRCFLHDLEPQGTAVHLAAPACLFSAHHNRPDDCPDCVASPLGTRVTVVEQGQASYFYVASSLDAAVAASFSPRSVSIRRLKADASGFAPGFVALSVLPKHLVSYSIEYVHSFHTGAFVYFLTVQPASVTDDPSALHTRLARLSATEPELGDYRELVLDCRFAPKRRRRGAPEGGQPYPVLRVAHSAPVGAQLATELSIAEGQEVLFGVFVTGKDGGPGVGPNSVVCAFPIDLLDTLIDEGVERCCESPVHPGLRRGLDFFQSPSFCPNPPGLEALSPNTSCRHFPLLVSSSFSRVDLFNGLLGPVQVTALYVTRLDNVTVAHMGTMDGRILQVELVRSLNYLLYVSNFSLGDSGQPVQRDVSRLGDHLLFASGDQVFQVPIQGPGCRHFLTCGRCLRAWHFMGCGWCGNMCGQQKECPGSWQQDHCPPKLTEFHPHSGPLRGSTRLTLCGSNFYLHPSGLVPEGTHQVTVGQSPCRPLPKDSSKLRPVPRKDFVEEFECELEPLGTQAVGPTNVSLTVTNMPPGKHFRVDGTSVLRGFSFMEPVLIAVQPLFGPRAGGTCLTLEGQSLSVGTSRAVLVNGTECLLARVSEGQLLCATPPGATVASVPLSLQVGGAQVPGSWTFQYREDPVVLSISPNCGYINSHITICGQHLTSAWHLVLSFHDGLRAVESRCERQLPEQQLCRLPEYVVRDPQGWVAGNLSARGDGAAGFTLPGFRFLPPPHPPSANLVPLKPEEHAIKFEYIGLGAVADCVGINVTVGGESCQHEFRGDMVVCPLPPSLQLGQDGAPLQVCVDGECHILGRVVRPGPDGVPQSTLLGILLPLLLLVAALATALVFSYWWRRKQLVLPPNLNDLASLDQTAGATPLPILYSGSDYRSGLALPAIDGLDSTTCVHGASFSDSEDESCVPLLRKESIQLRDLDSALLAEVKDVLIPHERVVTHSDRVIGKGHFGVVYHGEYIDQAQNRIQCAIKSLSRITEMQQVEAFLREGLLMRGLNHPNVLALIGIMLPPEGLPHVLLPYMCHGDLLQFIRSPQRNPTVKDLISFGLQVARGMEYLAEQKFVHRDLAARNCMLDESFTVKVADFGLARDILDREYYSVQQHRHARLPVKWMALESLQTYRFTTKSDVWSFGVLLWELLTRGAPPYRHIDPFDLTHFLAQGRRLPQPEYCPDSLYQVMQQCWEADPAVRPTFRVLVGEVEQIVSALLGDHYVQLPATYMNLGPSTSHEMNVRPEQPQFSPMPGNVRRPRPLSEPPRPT
T4 sequence (P00533 with tags, fused parts or gaps DEL747-752/P753S limits assumed): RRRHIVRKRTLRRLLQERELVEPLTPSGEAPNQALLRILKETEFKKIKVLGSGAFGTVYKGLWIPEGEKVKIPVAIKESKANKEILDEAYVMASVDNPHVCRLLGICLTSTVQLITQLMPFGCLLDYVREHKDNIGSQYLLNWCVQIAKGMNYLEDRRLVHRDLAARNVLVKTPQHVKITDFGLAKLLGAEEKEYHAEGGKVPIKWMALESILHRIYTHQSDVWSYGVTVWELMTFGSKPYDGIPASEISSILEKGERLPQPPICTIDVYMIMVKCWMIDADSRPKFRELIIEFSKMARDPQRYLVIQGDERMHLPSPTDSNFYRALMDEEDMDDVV
T13 sequence (Q15303 26-1308): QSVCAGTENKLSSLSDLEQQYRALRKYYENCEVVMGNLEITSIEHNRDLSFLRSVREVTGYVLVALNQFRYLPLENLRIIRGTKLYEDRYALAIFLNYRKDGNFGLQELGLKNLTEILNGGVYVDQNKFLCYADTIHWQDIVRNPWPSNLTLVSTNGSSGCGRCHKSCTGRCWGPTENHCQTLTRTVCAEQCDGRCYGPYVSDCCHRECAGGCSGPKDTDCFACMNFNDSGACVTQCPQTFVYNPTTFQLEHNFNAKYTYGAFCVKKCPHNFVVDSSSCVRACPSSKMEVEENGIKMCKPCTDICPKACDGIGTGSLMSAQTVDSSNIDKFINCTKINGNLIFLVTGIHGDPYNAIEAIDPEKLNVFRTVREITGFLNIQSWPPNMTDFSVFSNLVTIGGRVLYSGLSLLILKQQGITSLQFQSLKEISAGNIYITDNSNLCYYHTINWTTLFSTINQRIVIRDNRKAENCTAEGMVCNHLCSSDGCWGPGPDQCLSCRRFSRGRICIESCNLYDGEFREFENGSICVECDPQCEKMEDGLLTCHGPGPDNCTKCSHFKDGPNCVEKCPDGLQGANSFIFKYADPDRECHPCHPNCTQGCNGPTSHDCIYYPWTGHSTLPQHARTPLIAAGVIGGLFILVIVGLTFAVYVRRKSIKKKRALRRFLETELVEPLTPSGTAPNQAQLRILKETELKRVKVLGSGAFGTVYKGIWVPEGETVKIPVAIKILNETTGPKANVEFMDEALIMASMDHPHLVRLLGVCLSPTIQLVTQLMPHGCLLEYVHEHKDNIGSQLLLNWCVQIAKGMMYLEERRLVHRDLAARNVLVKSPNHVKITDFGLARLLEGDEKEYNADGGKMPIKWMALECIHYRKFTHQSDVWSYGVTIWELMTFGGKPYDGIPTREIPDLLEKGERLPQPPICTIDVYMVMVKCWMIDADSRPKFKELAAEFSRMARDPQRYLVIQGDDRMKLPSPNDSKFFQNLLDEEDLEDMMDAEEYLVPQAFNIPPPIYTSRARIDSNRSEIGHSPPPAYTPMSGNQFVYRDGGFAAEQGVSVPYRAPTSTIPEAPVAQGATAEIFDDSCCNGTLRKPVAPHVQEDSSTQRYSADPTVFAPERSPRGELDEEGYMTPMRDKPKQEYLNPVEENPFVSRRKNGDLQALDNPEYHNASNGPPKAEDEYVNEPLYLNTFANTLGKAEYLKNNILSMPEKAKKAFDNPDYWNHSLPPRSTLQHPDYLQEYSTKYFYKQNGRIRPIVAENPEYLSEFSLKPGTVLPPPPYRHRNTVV
T2 sequence (P41240 whole entry): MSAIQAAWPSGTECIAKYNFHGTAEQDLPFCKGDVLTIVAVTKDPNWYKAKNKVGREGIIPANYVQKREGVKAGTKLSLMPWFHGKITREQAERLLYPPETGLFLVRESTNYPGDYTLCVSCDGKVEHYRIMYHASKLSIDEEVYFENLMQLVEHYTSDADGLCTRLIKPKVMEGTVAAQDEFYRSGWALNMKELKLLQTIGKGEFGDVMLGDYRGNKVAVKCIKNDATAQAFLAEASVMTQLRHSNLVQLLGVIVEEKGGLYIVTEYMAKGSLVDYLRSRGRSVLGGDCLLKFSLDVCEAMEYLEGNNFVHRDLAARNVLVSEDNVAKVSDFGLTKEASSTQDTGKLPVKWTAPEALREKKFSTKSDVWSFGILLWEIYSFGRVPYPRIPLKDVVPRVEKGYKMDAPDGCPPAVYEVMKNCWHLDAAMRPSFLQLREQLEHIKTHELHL
T6 sequence (Q9NYY3 whole entry): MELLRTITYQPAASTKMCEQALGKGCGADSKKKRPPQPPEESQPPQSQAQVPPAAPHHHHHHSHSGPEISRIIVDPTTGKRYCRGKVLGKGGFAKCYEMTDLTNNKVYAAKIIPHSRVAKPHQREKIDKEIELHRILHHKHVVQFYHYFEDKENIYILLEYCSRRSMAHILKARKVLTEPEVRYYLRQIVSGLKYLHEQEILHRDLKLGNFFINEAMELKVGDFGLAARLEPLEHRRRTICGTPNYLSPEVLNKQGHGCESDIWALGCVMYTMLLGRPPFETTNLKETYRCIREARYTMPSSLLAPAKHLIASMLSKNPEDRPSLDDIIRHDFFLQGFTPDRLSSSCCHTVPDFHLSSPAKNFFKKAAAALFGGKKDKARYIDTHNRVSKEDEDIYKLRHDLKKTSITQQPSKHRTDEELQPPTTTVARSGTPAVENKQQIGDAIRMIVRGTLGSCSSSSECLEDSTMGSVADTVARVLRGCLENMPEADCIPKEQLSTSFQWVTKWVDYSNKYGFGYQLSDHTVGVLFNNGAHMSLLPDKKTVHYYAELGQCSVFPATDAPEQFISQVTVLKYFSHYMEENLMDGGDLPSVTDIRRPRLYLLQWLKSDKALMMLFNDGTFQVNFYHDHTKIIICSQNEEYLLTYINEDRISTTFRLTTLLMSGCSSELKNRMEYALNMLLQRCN

Turning to `Clc1cc(NCC2CC2)c2ncc(-c3ccc4[nH]ncc4c3)n2n1` [compound 2, 6-Chloro-N-(cyclopropylmethyl)-3-(1H-indazol-5-yl)imidazo[1,2-b]pyridazin-8-amine], the remaining binding at 1 µM amounted to 63% at PAK3; 100% on CSK; 99% on MST1R; 89% in assay [1]; 100% on RET(M918T); 66% on PLK2. Also, the remaining binding at 1 µM at LRRK2(G2019S) is 91%; on FGFR1 it was 99%; in assay [2], 100%; at EGFR(G719C) it was 91%; on IKK-alpha, 76%; on FLT3-autoinhibited, 42%. Besides, the remaining binding at 1 µM is 99% on ERBB4; 98% at FER; 100% at PIP5K1A; 100% on p38-alpha; 100% on PRKCE.

Turning to `O=C(CN1CCOCC1)N[C@H]1CC[C@H](Nc2cc(Cl)nn3c(-c4ccc5[nH]ncc5c4)cnc23)CC1` [compound 26], the remaining binding at 1 µM came to 81% on PAK3; 94% on CSK; 64% on MST1R; 81% in assay [1]; 92% at RET(M918T); 100% on PLK2. Moreover, the remaining binding at 1 µM is 76% at LRRK2(G2019S); 94% on FGFR1; 100% in assay [2]; 93% on EGFR(G719C); 100% at IKK-alpha; 0.65% at FLT3-autoinhibited. For the same molecule, the remaining binding at 1 µM at ERBB4 is 100%; at FER, 100%; at PIP5K1A it was 80%; on p38-alpha, 99%; at PRKCE, 96%.

On to `CN1CCC(CNc2cc(Cl)nn3c(-c4cc5nc(Nc6ccccc6)[nH]c5cc4F)cnc23)CC1` [compound 31, 6-Chloro-3-(6-fluoro-2-(phenylamino)-1H-benzo[d]imidazol-5-yl)-N-((1-methylpiperidin-4-yl)methyl)imidazo[1,2-b]pyridazin-8-amine], for which the remaining binding at 1 µM on PAK3 came to 100%; at CSK, 98%; on MST1R, 77%; in assay [1], 100%; on RET(M918T), 80%; at PLK2, 90%. Further, the remaining binding at 1 µM on LRRK2(G2019S) was determined as 88%; on FGFR1, 87%; in assay [2], 82%; on EGFR(G719C), 71%; at IKK-alpha, 90%; on FLT3-autoinhibited, 90%. Further, the remaining binding at 1 µM on ERBB4 amounted to 100%; at FER, 82%; at PIP5K1A, 91%; at p38-alpha, 95%; on PRKCE it was 86%.
